According to patent US10597388B2, “Pyridazinone herbicides” (FMC CORPORATION, priority 2014, dated 2020):

Columns and labels:
Format in all cases: in vivo
[1] = system: pigweed (Amaranthus retroflexus); assay: Test A greenhouse herbicide test, pre- and postemergence
In short: (§1)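 Visual injury ratings, 0 (no effect) to 100 (complete control), versus untreated plants after roughly 10 d in a greenhouse. Compounds, formulated in a surfactant-containing non-phytotoxic solvent, were sprayed on loam–sand soil after sowing (pre) or on one- to two-leaf plants 2–10 cm tall (post).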

[2] = system: barnyardgrass (Echinochloa crus-galli); assay: as above
In short: as §1

[3] = system: foxtail, giant (giant foxtail, Setaria faberii); assay: as above
In short: as §1

[4] = system: ragweed (common ragweed, Ambrosia elatior); assay: as above
In short: as §1

[5] = system: wheat (Triticum aestivum); assay: as above; settings: Postemergence; for Wheat plant response rating: 0 to 100 scale, 0 is no effect, 100 is complete control
In short: as §1

kochia (Kochia scoparia) [6] = assay: as above
In short: as §1

corn (Zea mays) = assay: as above; settings: Postemergence; for Corn plant response rating: 0 to 100 scale, 0 is no effect, 100 is complete control
In short: as §1

kochia (Kochia scoparia) [7] = assay: Test C greenhouse herbicide test, postemergence
In short: (§2)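 Test chemicals were applied postemergence to greenhouse plants at the 1- to 4-leaf stage (2–18 cm tall) growing in peat/vermiculite medium. After 13–15 d, injury was rated visually against untreated controls on a 0–100 scale (0 = no effect, 100 = complete control).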

[8] = system: oat, wild (wild oat, Avena fatua); assay: Test C greenhouse herbicide test, postemergence
In short: as §2

[9] = system: chickweed (common chickweed, Stellaria media); assay: Test C greenhouse herbicide test, postemergence
In short: as §2

[10] = Postemergence, 125 g ai/ha, 0 to 100 scale where 0 is no effect and 100 is complete control
[11] = Postemergence, 500 g ai/ha, 0 to 100 scale, 0 is no effect, 100 is complete control
[12] = Preemergence, 125 g ai/ha, 0 to 100 scale where 0 is no effect and 100 is complete control
[13] = Preemergence, 500 g ai/ha, 0 to 100 scale where 0 is no effect and 100 is complete control
[14] = Preemergence, 500 g ai/ha, 0 to 100 scale, 0 no effect, 100 complete control
[15] = 125 g ai/ha, 0 to 100 scale where 0 is no effect and 100 is complete control
[16] = Postemergence, 31 g ai/ha, 0 to 100 scale (0 no effect, 100 complete control)
[17] = Postemergence, 125 g ai/ha, scale 0 to 100, 0 is no effect, 100 is complete control
[18] = Postemergence, 250 g ai/ha, scale 0 to 100, 0 no effect, 100 complete control, 13 to 15 d
[19] = postemergence, 62 g ai/ha, scale 0 to 100, 0 no effect, 100 complete control
[20] = Postemergence, 500 g ai/ha, visual rating after approx. 10 d, 0 to 100 scale (0 no effect, 100 complete control)
[21] = 500 g ai/ha, visual rating after approx. 10 d, 0 to 100 scale (0 no effect, 100 complete control)
[22] = Postemergence, 31 g ai/ha, scale 0 to 100 (0 no effect, 100 complete control)
[23] = Postemergence, 62 g ai/ha, 0 to 100 scale (0 no effect, 100 complete control)
[24] = postemergence, 125 g ai/ha, scale 0 to 100, 0 no effect, 100 complete control
[25] = Postemergence, 125 g ai/ha, visual rating after approx. 10 d, 0 to 100 scale (0 no effect, 100 complete control)
[26] = 125 g ai/ha, visual rating after approx. 10 d, 0 to 100 scale (0 no effect, 100 complete control)
[27] = Postemergence, 16 g ai/ha, scale 0 to 100 (0 no effect, 100 complete control)
[28] = Postemergence, 8 g ai/ha, scale 0 to 100 (0 no effect, 100 complete control)

Cc1ccc2sc(Br)c(-c3c(O)c(C)nn(C)c3=O)c2c1 [Compound 79]
70: Plant response rating, Barnyardgrass [2, 14] | Plant response rating, Foxtail, Giant [3, 10] | Kochia plant response rating (kochia (Kochia scoparia) [6]; [12])
100: Pigweed plant response rating [1, 12] | Plant response rating, Pigweed [1, 13]
90: Plant response rating, Pigweed [1, 10] | Pigweed plant response rating [1, 11] | Foxtail, Giant plant response rating [3, 12] | Plant response rating, Foxtail, Giant [3, 13] | Plant response rating, Ragweed [4, 10] | Ragweed plant response rating [4, 11] | Kochia plant response rating (kochia (Kochia scoparia) [6]; [11]) | Plant response rating, Kochia (kochia (Kochia scoparia) [6]; [13]) | Plant response rating, Kochia (kochia (Kochia scoparia) [7]; [17]) | Plant response rating, Kochia (kochia (Kochia scoparia) [7]; [18]) | Kochia plant response rating (kochia (Kochia scoparia) [7]; [19]) | Plant response rating, Oat, Wild [8, 18] | Chickweed plant response rating [9, 16] | Plant response rating, Chickweed [9, 17] | Plant response rating, Chickweed [9, 18] | Chickweed plant response rating [9, 19]
0: Plant response rating, Wheat [5, 15] | Wheat plant response rating ([5]; 500 g ai/ha) | Plant response rating, Corn (corn (Zea mays); [15]) | Corn plant response rating (corn (Zea mays); 500 g ai/ha)
85: Plant response rating, Oat, Wild [8, 17]
60: Oat, Wild plant response rating [8, 19]
80: Barnyardgrass plant response rating [2, 11] | Foxtail, Giant plant response rating [3, 11] | Ragweed plant response rating [4, 12] | Plant response rating, Ragweed [4, 13] | Plant response rating, Kochia (kochia (Kochia scoparia) [6]; [10])
50: Plant response rating, Barnyardgrass [2, 10] | Barnyardgrass plant response rating [2, 12] | Kochia plant response rating (kochia (Kochia scoparia) [7]; [16]) | Oat, Wild plant response rating [8, 16]

COC(=O)Oc1c(C)nn(C)c(=O)c1-c1ccc(F)c2ccccc12 [Compound 130]
60: Plant response rating, Barnyardgrass [2, 10] | Ragweed plant response rating [4, 12] | Kochia plant response rating (kochia (Kochia scoparia) [6]; [12]) | Plant response rating, Oat, Wild [8, 22]
100: Plant response rating, Pigweed [1, 10] | Plant response rating, Pigweed [1, 20] | Plant response rating, Pigweed [1, 13] | Plant response rating, Barnyardgrass [2, 13] | Plant response rating, Ragweed [4, 20] | Plant response rating, Kochia (kochia (Kochia scoparia) [6]; [10]) | Plant response rating, Kochia (kochia (Kochia scoparia) [6]; [20]) | Plant response rating, Kochia (kochia (Kochia scoparia) [6]; [13]) | Plant response rating, Kochia (kochia (Kochia scoparia) [7]; [18]) | Kochia plant response rating (kochia (Kochia scoparia) [7]; [24]) | Plant response rating, Chickweed [9, 18]
70: Plant response rating, Foxtail, Giant [3, 10] | Plant response rating, Ragweed [4, 10]
0: Plant response rating, Wheat [5, 15] | Plant response rating, Corn (corn (Zea mays); [15])
90: Pigweed plant response rating [1, 12] | Plant response rating, Barnyardgrass [2, 20] | Plant response rating, Foxtail, Giant [3, 20] | Plant response rating, Foxtail, Giant [3, 13] | Plant response rating, Ragweed [4, 13] | Plant response rating, Chickweed [9, 22]
80: Oat, Wild plant response rating [8, 23]
30: Barnyardgrass plant response rating [2, 12] | Foxtail, Giant plant response rating [3, 12] | Plant response rating, Wheat [5, 21] | Plant response rating, Corn (corn (Zea mays); [21])
98: Chickweed plant response rating [9, 24]
85: Oat, Wild plant response rating [8, 24]
95: Plant response rating, Kochia (kochia (Kochia scoparia) [7]; [22]) | Kochia plant response rating (kochia (Kochia scoparia) [7]; [23]) | Plant response rating, Oat, Wild [8, 18] | Chickweed plant response rating [9, 23]

Cc1nn(C)c(=O)c(-c2c(C)sc3c(C)cc(Cl)cc23)c1O [Compound 35]
90: Pigweed plant response rating [1, 11] | Plant response rating, Pigweed [1, 14] | Barnyardgrass plant response rating [2, 11] | Plant response rating, Barnyardgrass [2, 14] | Plant response rating, Foxtail, Giant [3, 25] | Foxtail, Giant plant response rating [3, 11] | Foxtail, Giant plant response rating [3, 12] | Plant response rating, Chickweed [9, 28] | Plant response rating, Chickweed [9, 27]
80: Plant response rating, Pigweed [1, 25] | Ragweed plant response rating [4, 11] | Plant response rating, Ragweed [4, 14] | Plant response rating, Kochia (kochia (Kochia scoparia) [6]; [25])
0: Plant response rating, Corn (corn (Zea mays); [26])
70: Ragweed plant response rating [4, 12] | Plant response rating, Kochia (kochia (Kochia scoparia) [6]; [14])
60: Pigweed plant response rating [1, 12] | Barnyardgrass plant response rating [2, 12] | Oat, Wild plant response rating [8, 19]
10: Plant response rating, Oat, Wild [8, 28]
95: Chickweed plant response rating [9, 16] | Chickweed plant response rating [9, 19]
50: Plant response rating, Barnyardgrass [2, 25] | Plant response rating, Ragweed [4, 25]
100: Plant response rating, Foxtail, Giant [3, 14] | Kochia plant response rating (kochia (Kochia scoparia) [6]; [11])
30: Corn plant response rating (corn (Zea mays); 500 g ai/ha) | Plant response rating, Kochia (kochia (Kochia scoparia) [7]; [27]) | Kochia plant response rating (kochia (Kochia scoparia) [7]; [16]) | Plant response rating, Oat, Wild [8, 27]
20: Plant response rating, Wheat [5, 15]
40: Wheat plant response rating ([5]; 500 g ai/ha) | Kochia plant response rating (kochia (Kochia scoparia) [6]; [12]) | Kochia plant response rating (kochia (Kochia scoparia) [7]; [19]) | Oat, Wild plant response rating [8, 16]

Cc1ccc2ccccc2c1-c1c(O)c(Br)nn(C)c1=O [Compound 23]
40: Plant response rating, Corn (corn (Zea mays); [26])
95: Kochia plant response rating (kochia (Kochia scoparia) [7]; [16]) | Kochia plant response rating (kochia (Kochia scoparia) [7]; [19]) | Oat, Wild plant response rating [8, 19]
50: Plant response rating, Wheat [5, 26] | Corn plant response rating (corn (Zea mays); 500 g ai/ha)
85: Oat, Wild plant response rating [8, 16]
90: Barnyardgrass plant response rating [2, 11] | Barnyardgrass plant response rating [2, 12] | Plant response rating, Barnyardgrass [2, 14] | Plant response rating, Foxtail, Giant [3, 25] | Foxtail, Giant plant response rating [3, 11] | Foxtail, Giant plant response rating [3, 12] | Plant response rating, Foxtail, Giant [3, 14] | Plant response rating, Ragweed [4, 25] | Ragweed plant response rating [4, 12] | Plant response rating, Ragweed [4, 14]
80: Plant response rating, Barnyardgrass [2, 25] | Wheat plant response rating ([5]; 500 g ai/ha) | Kochia plant response rating (kochia (Kochia scoparia) [6]; [12])
100: Plant response rating, Pigweed [1, 25] | Pigweed plant response rating [1, 11] | Pigweed plant response rating [1, 12] | Plant response rating, Pigweed [1, 14] | Ragweed plant response rating [4, 11] | Plant response rating, Kochia (kochia (Kochia scoparia) [6]; [25]) | Kochia plant response rating (kochia (Kochia scoparia) [6]; [11]) | Plant response rating, Kochia (kochia (Kochia scoparia) [6]; [14]) | Plant response rating, Kochia (kochia (Kochia scoparia) [7]; [17]) | Plant response rating, Kochia (kochia (Kochia scoparia) [7]; [18]) | Plant response rating, Oat, Wild [8, 17] | Plant response rating, Oat, Wild [8, 18] | Chickweed plant response rating [9, 16] | Plant response rating, Chickweed [9, 17] | Plant response rating, Chickweed [9, 18] | Chickweed plant response rating [9, 19]

Cc1ccc2sc(C)c(-c3c(OC(=O)OC(C)C)c(C)nn(C)c3=O)c2c1 [Compound 66]
90: Pigweed plant response rating [1, 11] | Barnyardgrass plant response rating [2, 11] | Foxtail, Giant plant response rating [3, 11] | Plant response rating, Foxtail, Giant [3, 14] | Ragweed plant response rating [4, 11] | Plant response rating, Ragweed [4, 14] | Plant response rating, Kochia (kochia (Kochia scoparia) [6]; [10]) | Kochia plant response rating (kochia (Kochia scoparia) [6]; [11]) | Kochia plant response rating (kochia (Kochia scoparia) [7]; [16]) | Plant response rating, Kochia (kochia (Kochia scoparia) [7]; [17]) | Kochia plant response rating (kochia (Kochia scoparia) [7]; [19]) | Plant response rating, Oat, Wild [8, 17] | Plant response rating, Oat, Wild [8, 18] | Chickweed plant response rating [9, 16]
20: Plant response rating, Barnyardgrass [2, 10] | Barnyardgrass plant response rating [2, 12]
70: Plant response rating, Barnyardgrass [2, 14] | Plant response rating, Foxtail, Giant [3, 10] | Plant response rating, Ragweed [4, 10] | Plant response rating, Kochia (kochia (Kochia scoparia) [6]; [14])
60: Foxtail, Giant plant response rating [3, 12] | Kochia plant response rating (kochia (Kochia scoparia) [6]; [12])
100: Pigweed plant response rating [1, 12] | Plant response rating, Pigweed [1, 14]
0: Plant response rating, Wheat [5, 15] | Wheat plant response rating ([5]; 500 g ai/ha) | Plant response rating, Corn (corn (Zea mays); [15]) | Corn plant response rating (corn (Zea mays); 500 g ai/ha)
80: Plant response rating, Pigweed [1, 10] | Ragweed plant response rating [4, 12] | Oat, Wild plant response rating [8, 19]
95: Plant response rating, Chickweed [9, 17] | Plant response rating, Chickweed [9, 18] | Chickweed plant response rating [9, 19]
98: Plant response rating, Kochia (kochia (Kochia scoparia) [7]; [18])
55: Oat, Wild plant response rating [8, 16]
